Measurements reported in patent publication US8592174B2, “Peptidase substrates” (bioMérieux, S.A., priority 2009, dated 2013).
Values belong to the molecule of their own block, whether it stands above or below them.

Key:
Test in all cases: Peptidase detection on Columbia medium (Example 2)
Assay type in all cases: cell-based
Details in all cases: 24 h 37° C.
[1] = tested on: Escherichia coli NCTC 10 418; parameters: key to Growth: NG: No growth; 0.5: weak growth; 1: moderate growth; 2: good growth
Description: (§1) The 6 media were distributed into Petri dishes 90 mm in diameter, in a proportion of 20 ml per dish.
(§2) Seventeen strains of microorganisms stemming from collections and belonging to various species of bacteria and yeasts are inoculated in spots of approximately 10 000 colony-forming units.
(§3) The media are incubated for 24 hours at 37° C., and then the colonies formed are examined visually, with or without the addition of acid and under a UV lamp at 365 nm.

[2] = tested on: Serratia marcescens NCTC 10 211; parameters: key to Growth: NG: No growth; 0.5: weak growth; 1: moderate growth; 2: good growth
Description: as §1, §2, §3

[3] = tested on: Pseudomonas aeruginosa NCTC 10 662; parameters: key to Growth: NG: No growth; 0.5: weak growth; 1: moderate growth; 2: good growth; key to Color: —: no color
[4] = tested on: Yersinia enterocolitica NCTC 11 176; parameters: key to Growth: NG: No growth; 0.5: weak growth; 1: moderate growth; 2: good growth; key to Color: —: no color
[5] = tested on: Salmonella typhimurium NCTC 74; parameters: key to Growth: NG: No growth; 0.5: weak growth; 1: moderate growth; 2: good growth; key to Color: —: no color
Description: as §1, §2, §3

[6] = tested on: Enterobacter cloacae NCTC 11 936; parameters: key to Growth: NG: No growth; 0.5: weak growth; 1: moderate growth; 2: good growth
Description: as §1, §2, §3

[7] = tested on: Providencia rettgeri NCTC 7 475; parameters: key to Growth: NG: No growth; 0.5: weak growth; 1: moderate growth; 2: good growth; key to Color: —: no color
Description: as §1, §2, §3

[8] = tested on: Bacillus subtilis NCTC 9 372; parameters: key to Growth: NG: No growth; 0.5: weak growth; 1: moderate growth; 2: good growth; key to Fluo. / Color / Color post-acid.: —: no color
Description: as §1, §2, §3

[9] = tested on: Enterococcus faecalis NCTC 775; parameters: key to Growth: NG: No growth; 0.5: weak growth; 1: moderate growth; 2: good growth; key to Fluo. / Color / Color post-acid.: —: no color
Description: as §1, §2, §3

[10] = tested on: Enterococcus faecium NCTC 7 171; parameters: key to Growth: NG: No growth; 0.5: weak growth; 1: moderate growth; 2: good growth; key to Fluo. / Color / Color post-acid.: —: no color
Description: as §1, §2, §3

[11] = tested on: Staphylococcus epidermidis NCTC 11 047; parameters: key to Growth: NG: No growth; 0.5: weak growth; 1: moderate growth; 2: good growth; key to Fluo. / Color / Color post-acid.: —: no color
[12] = tested on: Staphylococcus aureus NCTC 6 571; parameters: key to Growth: NG: No growth; 0.5: weak growth; 1: moderate growth; 2: good growth; key to Fluo. / Color / Color post-acid.: —: no color
Description: as §1, §2, §3

[13] = tested on: Staphylococcus aureus NCTC 11 939; parameters: key to Growth: NG: No growth; 0.5: weak growth; 1: moderate growth; 2: good growth; key to Fluo. / Color / Color post-acid.: —: no color
[14] = tested on: Streptococcus pyogenes NCTC 8 306; parameters: key to Growth: NG: No growth; 0.5: weak growth; 1: moderate growth; 2: good growth; key to Fluo. / Color / Color post-acid.: —: no color
Description: as §1, §2, §3

[15] = tested on: Listeria monocytogenes NCTC 11 994; parameters: key to Growth: NG: No growth; 0.5: weak growth; 1: moderate growth; 2: good growth; key to Fluo. / Color / Color post-acid.: —: no color
Description: as §1, §2, §3

[16] = tested on: Candida albicans ATCC 90 028; parameters: key to Growth: NG: No growth; 0.5: weak growth; 1: moderate growth; 2: good growth; key to Fluo. / Color / Color post-acid.: —: no color
[17] = tested on: Candida glabrata NCPF 3 943; parameters: key to Growth: NG: No growth; 0.5: weak growth; 1: moderate growth; 2: good growth; key to Fluo. / Color / Color post-acid.: —: no color
Description: as §1, §2, §3

Color ([2]; 40 mg in 400 ml Columbia): Orange | Growth ([2]; 40 mg in 400 ml Columbia): 2 | Color ([3]; 40 mg in 400 ml Columbia): — | Growth ([3]; 40 mg in 400 ml Columbia): 2 | Growth ([5]; 40 mg in 400 ml Columbia): 2 | Color ([6]; 40 mg in 400 ml Columbia): Orange | Growth ([6]; 40 mg in 400 ml Columbia): 2 | Color ([8]; 40 mg in 400 ml Columbia): — | Growth ([8]; 40 mg in 400 ml Columbia): 1 | Growth ([9]; 40 mg in 400 ml Columbia): 1 | Color ([10]; 40 mg in 400 ml Columbia): — | Growth ([10]; 40 mg in 400 ml Columbia): 1 | Color ([14]; 40 mg in 400 ml Columbia): — | Growth ([14]; 40 mg in 400 ml Columbia): NG | Color ([15]; 40 mg in 400 ml Columbia): — | Growth ([15]; 40 mg in 400 ml Columbia): 1
Compound: C[n+]1ccc(C=Cc2ccc(NC(=O)[C@@H](N)Cc3ccc(O)cc3)cc2)c2ccccc21.Cl.[Cl-] [Tyr-ASQM^+, L-tyrosyl-4-(4′-amidostyryl)-N-methylquinolinium dihydrochloride]
Color ([1]; 40 mg in 400 ml Columbia): Orange | Growth ([1]; 40 mg in 400 ml Columbia): 2 | Growth ([4]; 40 mg in 400 ml Columbia): 2 | Growth ([7]; 40 mg in 400 ml Columbia): 2 | Color ([11]; 40 mg in 400 ml Columbia): — | Growth ([11]; 40 mg in 400 ml Columbia): 0.5 | Color ([12]; 40 mg in 400 ml Columbia): — | Growth ([12]; 40 mg in 400 ml Columbia): NG | Color ([13]; 40 mg in 400 ml Columbia): — | Growth ([13]; 40 mg in 400 ml Columbia): NG | Color ([16]; 40 mg in 400 ml Columbia): — | Growth ([16]; 40 mg in 400 ml Columbia): 0.5 | Color ([17]; 40 mg in 400 ml Columbia): — | Growth ([17]; 40 mg in 400 ml Columbia): NG

Color ([2]; 80 mg in 400 ml Columbia): Pale orange | Growth ([2]; 80 mg in 400 ml Columbia): 2 | Color ([3]; 80 mg in 400 ml Columbia): Pale orange | Growth ([3]; 80 mg in 400 ml Columbia): 2 | Color ([5]; 80 mg in 400 ml Columbia): — | Growth ([5]; 80 mg in 400 ml Columbia): 2 | Color ([6]; 80 mg in 400 ml Columbia): Pale orange | Growth ([6]; 80 mg in 400 ml Columbia): 2 | Color ([8]; 80 mg in 400 ml Columbia): Orange | Growth ([8]; 80 mg in 400 ml Columbia): 2 | Color ([9]; 80 mg in 400 ml Columbia): — | Growth ([9]; 80 mg in 400 ml Columbia): 2 | Color ([10]; 80 mg in 400 ml Columbia): — | Growth ([10]; 80 mg in 400 ml Columbia): 2 | Color ([14]; 80 mg in 400 ml Columbia): — | Color ([15]; 80 mg in 400 ml Columbia): — | Growth ([15]; 80 mg in 400 ml Columbia): 2
Compound: C[n+]1ccc(C=Cc2ccc(NC(=O)[C@@H](N)CC(N)=O)cc2)c2ccccc21.O=C(O)C(F)(F)F.O=C([O-])C(F)(F)F [Asn-ASQM^+, L-asparaginyl-4-(4′-amidostyryl)-N-methylquinolinium-bis-TFA]
Color ([1]; 80 mg in 400 ml Columbia): Pale orange | Growth ([1]; 80 mg in 400 ml Columbia): 2 | Color ([4]; 80 mg in 400 ml Columbia): — | Growth ([4]; 80 mg in 400 ml Columbia): 2 | Color ([7]; 80 mg in 400 ml Columbia): — | Growth ([7]; 80 mg in 400 ml Columbia): 2 | Color ([11]; 80 mg in 400 ml Columbia): — | Color ([12]; 80 mg in 400 ml Columbia): — | Growth ([12]; 80 mg in 400 ml Columbia): 0.5 | Color ([13]; 80 mg in 400 ml Columbia): Orange | Growth ([13]; 80 mg in 400 ml Columbia): 2 | Color ([16]; 80 mg in 400 ml Columbia): — | Growth ([16]; 80 mg in 400 ml Columbia): 2 | Color ([17]; 80 mg in 400 ml Columbia): — | Growth ([17]; 80 mg in 400 ml Columbia): 0.5
